The record followed here is ChEMBL document CHEMBL3431459, “Roche carnitine palmitoyltransferase modulator screening data (supplementary data associated with the publication CHEMBL2216752)”.

≈ marks a conversion by molar mass, not a printed value.

The target of series [1] is T1, Carnitine O-palmitoyltransferase 1, muscle isoform (Homo sapiens, UniProt Q92523).
T1 sequence (Q92523 whole entry): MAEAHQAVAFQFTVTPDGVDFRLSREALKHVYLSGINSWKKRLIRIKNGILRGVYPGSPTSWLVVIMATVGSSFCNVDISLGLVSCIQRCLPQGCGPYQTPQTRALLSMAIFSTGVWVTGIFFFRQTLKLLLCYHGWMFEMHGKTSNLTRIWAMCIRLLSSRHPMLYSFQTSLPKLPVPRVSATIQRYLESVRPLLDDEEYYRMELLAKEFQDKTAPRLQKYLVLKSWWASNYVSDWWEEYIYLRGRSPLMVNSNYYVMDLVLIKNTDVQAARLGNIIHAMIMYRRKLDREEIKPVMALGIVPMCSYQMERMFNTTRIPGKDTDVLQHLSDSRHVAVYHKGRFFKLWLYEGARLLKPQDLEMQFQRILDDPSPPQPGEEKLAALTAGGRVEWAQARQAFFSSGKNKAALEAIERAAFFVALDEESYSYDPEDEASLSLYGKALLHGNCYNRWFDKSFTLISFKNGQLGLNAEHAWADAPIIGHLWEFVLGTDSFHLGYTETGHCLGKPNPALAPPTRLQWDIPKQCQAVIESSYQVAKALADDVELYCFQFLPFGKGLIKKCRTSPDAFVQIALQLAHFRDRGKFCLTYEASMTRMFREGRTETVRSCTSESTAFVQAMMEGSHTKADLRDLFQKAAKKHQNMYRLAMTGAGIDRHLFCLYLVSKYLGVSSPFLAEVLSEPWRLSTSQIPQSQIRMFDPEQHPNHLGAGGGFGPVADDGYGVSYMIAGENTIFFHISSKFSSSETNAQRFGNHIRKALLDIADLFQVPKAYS
The series is described as follows: SUPPLEMENTARY: Inhibition of Carnitine palmitoyltransferase 1, muscle isoform. Also noted: species or system Muscle tissue.

The target in series [2] is T2, Carnitine O-palmitoyltransferase 2, mitochondrial (Homo sapiens, UniProt P23786).
T2 sequence (P23786 whole entry): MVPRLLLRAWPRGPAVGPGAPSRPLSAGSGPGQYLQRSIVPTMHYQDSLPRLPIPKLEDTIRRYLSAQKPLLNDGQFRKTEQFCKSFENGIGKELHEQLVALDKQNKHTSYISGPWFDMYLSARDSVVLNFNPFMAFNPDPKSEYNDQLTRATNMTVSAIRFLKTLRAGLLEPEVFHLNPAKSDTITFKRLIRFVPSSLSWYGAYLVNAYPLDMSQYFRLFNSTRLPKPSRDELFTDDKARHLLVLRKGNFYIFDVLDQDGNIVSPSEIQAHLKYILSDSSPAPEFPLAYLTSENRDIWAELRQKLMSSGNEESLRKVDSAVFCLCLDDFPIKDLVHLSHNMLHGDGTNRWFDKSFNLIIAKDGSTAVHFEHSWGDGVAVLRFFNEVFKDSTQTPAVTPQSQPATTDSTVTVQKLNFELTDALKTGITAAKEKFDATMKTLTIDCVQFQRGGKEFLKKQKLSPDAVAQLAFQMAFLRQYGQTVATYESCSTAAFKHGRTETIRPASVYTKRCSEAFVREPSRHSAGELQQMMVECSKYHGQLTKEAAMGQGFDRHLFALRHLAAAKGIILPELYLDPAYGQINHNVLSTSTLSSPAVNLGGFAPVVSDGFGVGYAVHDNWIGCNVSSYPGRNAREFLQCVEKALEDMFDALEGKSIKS
Description: (§1) SUPPLEMENTARY: Inhibition of Carnitine palmitoyltransferase 2.

For series [3], the target named is T3, Carnitine O-palmitoyltransferase 2, mitochondrial (Rattus norvegicus, UniProt P18886).
T3 sequence (P18886 whole entry): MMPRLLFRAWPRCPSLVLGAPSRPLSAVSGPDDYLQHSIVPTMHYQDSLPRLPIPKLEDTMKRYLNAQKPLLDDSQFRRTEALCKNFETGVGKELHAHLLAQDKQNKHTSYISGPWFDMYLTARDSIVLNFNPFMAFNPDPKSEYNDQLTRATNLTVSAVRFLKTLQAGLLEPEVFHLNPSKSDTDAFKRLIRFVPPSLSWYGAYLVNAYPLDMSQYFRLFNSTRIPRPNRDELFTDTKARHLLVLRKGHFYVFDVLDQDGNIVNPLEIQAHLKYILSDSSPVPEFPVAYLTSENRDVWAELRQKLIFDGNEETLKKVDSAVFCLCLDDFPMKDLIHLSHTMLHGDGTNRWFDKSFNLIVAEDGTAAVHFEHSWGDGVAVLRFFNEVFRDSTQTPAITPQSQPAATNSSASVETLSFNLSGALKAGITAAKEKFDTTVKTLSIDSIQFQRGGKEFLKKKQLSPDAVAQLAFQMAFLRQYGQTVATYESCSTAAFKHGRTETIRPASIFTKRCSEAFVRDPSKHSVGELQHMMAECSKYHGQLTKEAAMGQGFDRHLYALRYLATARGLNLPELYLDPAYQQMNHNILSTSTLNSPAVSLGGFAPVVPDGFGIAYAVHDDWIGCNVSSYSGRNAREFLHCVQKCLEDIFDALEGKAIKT
Described as §1.

In series [4] the target is T4, Carnitine O-palmitoyltransferase 1, liver isoform (Homo sapiens, UniProt P50416).
T4 sequence (P50416 whole entry): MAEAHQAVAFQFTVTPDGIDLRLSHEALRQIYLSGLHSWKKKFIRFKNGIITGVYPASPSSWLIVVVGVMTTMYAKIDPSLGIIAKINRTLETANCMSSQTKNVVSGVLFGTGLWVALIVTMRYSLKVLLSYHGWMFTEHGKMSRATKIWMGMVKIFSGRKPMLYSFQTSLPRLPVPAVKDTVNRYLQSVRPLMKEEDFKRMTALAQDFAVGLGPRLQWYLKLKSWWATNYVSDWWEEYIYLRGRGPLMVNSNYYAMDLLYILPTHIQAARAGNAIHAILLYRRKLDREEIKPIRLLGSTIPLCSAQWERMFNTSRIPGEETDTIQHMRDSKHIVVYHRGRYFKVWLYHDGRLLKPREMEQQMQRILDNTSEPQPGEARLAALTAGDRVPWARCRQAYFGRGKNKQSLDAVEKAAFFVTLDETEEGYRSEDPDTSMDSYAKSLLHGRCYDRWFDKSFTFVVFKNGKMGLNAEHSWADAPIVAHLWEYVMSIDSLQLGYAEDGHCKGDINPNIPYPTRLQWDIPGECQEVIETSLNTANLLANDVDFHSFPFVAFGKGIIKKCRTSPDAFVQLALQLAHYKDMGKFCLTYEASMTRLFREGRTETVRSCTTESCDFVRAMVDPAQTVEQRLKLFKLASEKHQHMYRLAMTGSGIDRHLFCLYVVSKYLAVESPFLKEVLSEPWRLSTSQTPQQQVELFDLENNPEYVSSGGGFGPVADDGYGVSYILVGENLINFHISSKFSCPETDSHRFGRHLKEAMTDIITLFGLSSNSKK
The series is described as follows: (§2) SUPPLEMENTARY: Inhibition of Carnitine palmitoyltransferase 1, liver isoform.

Series [5] concerns the target T5, Carnitine O-palmitoyltransferase 1, liver isoform (Rattus norvegicus, UniProt P32198).
T5 sequence (P32198 whole entry): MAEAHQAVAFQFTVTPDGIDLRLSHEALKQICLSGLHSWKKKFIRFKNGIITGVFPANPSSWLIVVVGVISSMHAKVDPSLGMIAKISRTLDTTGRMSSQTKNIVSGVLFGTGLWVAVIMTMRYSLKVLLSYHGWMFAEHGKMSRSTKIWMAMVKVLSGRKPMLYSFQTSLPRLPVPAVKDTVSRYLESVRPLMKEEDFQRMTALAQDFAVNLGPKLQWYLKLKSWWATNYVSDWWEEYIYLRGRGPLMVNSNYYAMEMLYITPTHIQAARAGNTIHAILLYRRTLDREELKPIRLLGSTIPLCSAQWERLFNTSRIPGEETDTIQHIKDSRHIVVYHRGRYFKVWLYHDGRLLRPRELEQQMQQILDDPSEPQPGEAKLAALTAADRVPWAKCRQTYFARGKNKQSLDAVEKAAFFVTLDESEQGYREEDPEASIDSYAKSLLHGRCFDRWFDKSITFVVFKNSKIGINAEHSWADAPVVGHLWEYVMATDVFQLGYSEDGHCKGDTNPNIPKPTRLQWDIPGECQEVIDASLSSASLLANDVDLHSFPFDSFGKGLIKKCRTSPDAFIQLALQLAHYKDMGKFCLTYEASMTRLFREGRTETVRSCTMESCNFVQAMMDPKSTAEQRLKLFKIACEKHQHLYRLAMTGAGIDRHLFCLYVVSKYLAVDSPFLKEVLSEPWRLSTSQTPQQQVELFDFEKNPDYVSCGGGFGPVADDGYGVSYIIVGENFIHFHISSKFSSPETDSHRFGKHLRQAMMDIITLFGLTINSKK
The series is described as §2.

A short description of series [6]: SUPPLEMENTARY: Lyophilisation Solubility Assay (LYSA). It is filed as physicochemical. The note with it: read-out: Kinetic_solubility.
Series [7] is described as follows: SUPPLEMENTARY: Lipophilicity (log D) Determination by high-throughput shake-flask. The note with it: octanol/water. It is filed as physicochemical.
Series [8] in a line: SUPPLEMENTARY: PAMPA permeability assay. The note with it: read-out: Permeability. It is filed as physicochemical.

Take `COc1ccc(Cl)cc1S(=O)(=O)N1CCCCc2ccc(C(=O)Nc3nc(CC(=O)O)cs3)cc21`: the 50% inhibitory concentration (IC50) was 602 nM in series [1]; more than 100000 nM in series [2]; more than 100000 nM in series [3]; 47.2 nM in series [4]; 17 nM in series [5]. Moreover, the solubility kinetic in series [6] came out at 216 µg/mL (≈ 403 µM). Further, the pH-dependent lipophilicity (logD) in series [7] came out at 0.54. The Papp in series [8] turned out to be 3.46 ×10⁻⁶ cm/s.
Turning to `COc1ccc(C)cc1S(=O)(=O)N1CCCc2ccc(C(=O)Nc3nc(CC(=O)O)cs3)cc21`, the half-maximal inhibitory concentration (IC50) is 2400 nM in series [1]; more than 100000 nM in series [2]; more than 100000 nM in series [3]; 54.6 nM in series [4]; 41.8 nM in series [5]. Also, in series [6], the solubility kinetic was 51 µg/mL (≈ 102 µM). This compound also came in with a logD in series [7] of 3.19. Besides, the Papp in series [8] came to 1.69 ×10⁻⁶ cm/s.
`COc1ccc(Cl)cc1S(=O)(=O)Nc1cc(C(=O)Nc2ccccc2)ccc1/C=C/C(=O)O`: the concentration for half-maximal inhibition (IC50) is 83100 nM in series [1]; more than 100000 nM in series [2]; more than 100000 nM in series [3]; 136 nM in series [4]; 79.8 nM in series [5]. In addition, in series [6], the solubility kinetic is more than 585 µg/mL. The logD in series [7] was found to be 0.36. The Papp in series [8] amounted to 1 ×10⁻⁶ cm/s.
`COc1ccc(Cl)cc1S(=O)(=O)N1COc2ccc(C(=O)Nc3ccn(CC(=O)O)n3)cc21`: the half-maximal inhibitory concentration (IC50) in series [1] was 38000 nM; in series [2], more than 100000 nM; in series [3] it was more than 100000 nM; in series [4], 136 nM; in series [5] it was 135 nM. For the same compound, the solubility kinetic in series [6] came out at 521 µg/mL (≈ 1060 µM). In addition, the logD in series [7] is -1.22. Besides, the Papp in series [8] came out at 0.03 ×10⁻⁶ cm/s.
As to `COc1ccc(Cl)cc1S(=O)(=O)N(C)c1cc(C(=O)Nc2nc(CC(=O)O)cs2)cc2c1OCO2`, the IC50 was 1160 nM in series [1]; 28400 nM in series [2]; 67500 nM in series [3]; 51.5 nM in series [4]; 62.5 nM in series [5]. In series [6], the solubility kinetic was 399 µg/mL (≈ 739 µM). The logD in series [7] was -0.12. For the same compound, in series [8], the Papp was found to be 2.43 ×10⁻⁶ cm/s.
With `COc1ccc(Cl)cc1S(=O)(=O)N(C)c1cc(C(=O)Nc2ccc(C(=O)O)cc2)cc2c1OCCO2`, the half-maximal inhibitory concentration (IC50) in series [1] worked out at 4050 nM; in series [2] it was 20700 nM; in series [3], 29000 nM; in series [4], 219 nM; in series [5], 249 nM. Further, in series [6], the solubility kinetic was more than 710 µg/mL. The compound further had a logD in series [7] of 0.58. Moreover, the Papp in series [8] was 2.54 ×10⁻⁶ cm/s.
Turning to `COc1ccc(Cl)cc1S(=O)(=O)N(C)c1cc(C(=O)Nc2nc(CC(=O)O)cs2)cc2c1OCCO2`, the IC50 in series [1] is 1560 nM; in series [2], more than 100000 nM; in series [3], more than 100000 nM; in series [4], 80.5 nM; in series [5] it was 110 nM. The solubility kinetic in series [6] is 382 µg/mL (≈ 690 µM). The compound also returned a pH-dependent lipophilicity (logD) in series [7] of -0.18. The Papp in series [8] is 1.28 ×10⁻⁶ cm/s.
`COc1ccc(Cl)cc1S(=O)(=O)N(C)c1cc(C(=O)Nc2ccc(C(=O)O)cc2)cc2c1OCO2`: the IC50 worked out at 1750 nM in series [1]; 17800 nM in series [2]; 27100 nM in series [3]; 133 nM in series [4]; 122 nM in series [5]. Besides, in series [6], the solubility kinetic worked out at 13 µg/mL (≈ 25.1 µM). In series [7], this compound registered a log distribution coefficient (logD) of 0.26. For the same compound, the Papp in series [8] is 2.06 ×10⁻⁶ cm/s.
For `COc1ccc(Cl)cc1S(=O)(=O)c1cn(CCCC(=O)O)c2ccc(C(=O)Nc3ccccc3)cc12`, the half-maximal inhibitory concentration (IC50) in series [1] was 12000 nM; in series [2], 38600 nM; in series [3], more than 100000 nM; in series [4], 15.1 nM; in series [5], 10.1 nM. In addition, the solubility kinetic in series [6] was 133 µg/mL (≈ 252 µM). This compound gave a logD in series [7] of 0.98. The Papp in series [8] was 0.27 ×10⁻⁶ cm/s.
In the case of `COc1ccc(Cl)cc1S(=O)(=O)c1cn(CCO)c2ccc(C(=O)Nc3ccccc3)cc12`, the IC50 was more than 100000 nM in series [1]; more than 100000 nM in series [2]; more than 100000 nM in series [3]; 43.8 nM in series [4]; 20.5 nM in series [5]. Also, in series [6], the solubility kinetic was less than 1 µg/mL. Besides, the logD in series [7] stood at 3.4. Besides, in series [8], the Papp is 0.06 ×10⁻⁶ cm/s.
